From US11679110B2, “Methods of treating disorders using CSF1R inhibitors” (Deciphera Pharmaceuticals, LLC, priority 2018, dated 2023)
Entries after “also recorded” stand apart in the source; their conditions may differ. Where two headings read alike, the source gives them in different places.

Assays:
M-NFS-60 cells = assay: cells; format: cell-based; conditions: Mus musculus
TGCT or DTGCT = conditions: cited from earlier work
[1] = human, in vivo, 800 mg
[2] = rat, 4-week, cited from earlier work
[3] = rat, six-month, cited from earlier work
[4] = human; recommended dose 800 mg daily; cited from earlier work
clinical = conditions: human, in vivo, 800 mg

FC(F)(F)c1ccc(CNc2ccc(Cc3c[nH]c4ncc(Cl)cc34)cn2)cn1 [pexidartinib]
IC50 (M-NFS-60 cells; read-out: average IC50, inhibition of M-NFS-60 cell proliferation, 10 ng/mL CSF1): 15.7 nM | IC50 (M-NFS-60 cells; read-out: average IC50, inhibition of M-NFS-60 cell proliferation, 1,000 ng/mL CSF1): 59.6 nM | ORR (TGCT or DTGCT; ENLIVEN phase 3 randomized trial, maintenance dose 400 mg twice daily): 39% | overall response rate (ORR) (TGCT or DTGCT; TGCT or DTGCT patients, 1000 mg daily, phase 2 clinical study): 52% | maximum tolerated dose (TGCT or DTGCT; TGCT patients, clinical use): 400 mg twice daily | liver injury / hepatotoxicity (TGCT or DTGCT; patients): mixed or cholestatic hepatotoxicity; also recorded: black box warning of hepatotoxicity | maximum tolerated dose and chosen phase 2 dose (TGCT or DTGCT; patients): 1000 mg per day | AUC0-24 clinical exposure (estimated from label AUC0-12) [1]: 154.93 µg·h/mL | NOAEL ([2]; 20, 60, 200 mg/kg/day oral gavage): could not be established | liver enzymes ([2]; all dose groups): increased liver enzymes | liver histology finding ([2]; all dose groups): dose-related hepatocellular centrilobular hypertrophy | deaths of main study animals due to treatment-related immunocompromise ([3]; 60 mg/kg daily): 3 | liver findings in female rats ([3]; 60 mg/kg, female): biliary cysts and increased gamma-glutamyl transferase (GGT) levels | liver findings ([3]; ≥20 mg/kg): hemosiderin deposition and necrotizing inflammation | AUC0-12 clinical exposure cited in the label [4]: 77.465 µg·h/mL | AUC(0-t) (clinical): 155 µg·h/mL
